Laboratory results taken from US20070276126A1, “Cell adhesion and extracellular matrix proteins” (Incyte Corporation, priority 2002, published 2007).

Tests used:
[1] = tested on: expression of SEQ ID NO:78 in PHA blasts (T cell blasts derived from PBMCs); test: Microarray analysis of SEQ ID NO:78 expression in reactivated PHA blasts versus untreated PHA blasts; assay type: cell-based, human; conditions: PHA blasts stimulated for 2 hours, versus matching untreated PHA blasts, one donor tested
Protocol: (§1) Total RNA is isolated from tissue samples using the guanidinium thiocyanate method and poly(A)^+ RNA is purified using the oligo-(dT) cellulose method. Each poly(A)^+ RNA sample is reverse transcribed using MMLV reverse-transcriptase, 0.05 pg/μl oligo-(dT) primer (21 mer), 1× first strand buffer, 0.03 units/μl RNase inhibitor, 500 μM dATP, 500 μM dGTP, 500 μM dTTP, 40 μM dCTP, 40 μM dCTP-Cy3 (BDS) or dCTP-Cy5 (Amersham Biosciences). The reverse transcription reaction is performed in a […] containing 200 ng poly(A)^+ RNA with GEMBRIGHT kits (Incyte). Specific control poly(A)^+ RNAs are synthesized by in vitro transcription from non-coding yeast genomic DNA. […]
(§2) Reporter-labeled hybridization complexes are detected with a microscope equipped with an Innova 70 mixed gas 10 W laser (Coherent, Inc., Santa Clara Calif.) capable of generating spectral lines at 488 nm for excitation of Cy3 and at 632 nm for excitation of Cy5. […]
(§3) A grid is superimposed over the fluorescence signal image such that the signal from each spot is centered in each element of the grid. The fluorescence signal within each element is then integrated to obtain a numerical value corresponding to the average intensity of the signal. […]

[2] = tested on: expression of SEQ ID NO:78 in normal and Tangier disease derived fibroblasts; test: Microarray analysis of SEQ ID NO:78 expression in fibroblasts cultured in the presence versus absence of cholesterol; assay type: cell-based, human; conditions: fibroblasts cultured in the presence of cholesterol versus same cell type in the absence of cholesterol (one of 'both types of comparisons')
Protocol: as §1, §2, §3

## CCCCCCCCCCCCCC(=O)O[C@@H]1[C@@H](C)[C@@]2(O)[C@@H](C=C(CO)C[C@]3(O)C(=O)C(C)=C[C@@H]23)[C@@H]2C(C)(C)[C@]12OC(C)=O [PMA, phorbol myristate acetate]
[1]
  downregulation of SEQ ID NO:78: at least two

## CC(C)CCC[C@@H](C)[C@H]1CC[C@H]2[C@@H]3CC=C4C[C@@H](O)CC[C@]4(C)[C@H]3CC[C@]12C [cholesterol]
[2]
  downregulation of SEQ ID NO:78: at least two
